Assay results published in US11851381B2, “Application of farnesene in preparing plant-derived urease inhibitor” (priority 2022, dated 2023).

What was measured:
corns = assay: Pot experiment: combined application of farnesene and urea on growth of corns; type: in vivo, corn; conditions: potted corns; for Increase of dry weight / Yield increase: versus control without farnesene
From the text: Soil required for pot experiment is brown soil collected from Shenyang. 13 g of nitrogen phosphorus potassium fertilizer is used as base fertilizer to be applied in all layers according to a ratio of 26-10-12; and the fertilizer with farnescene and the fertilizer without farnescene are used as control, and the application amount is 0.5%, 1% and 5% of a pure nitrogen content in the fertilizer. Nitrogen fertilizer for test is urea, phosphorus fertilizer is calcium superphosphate, and potassium fertilizer is potassium sulfate. Each treatment is repeated for 5 times. The pretreated soil (filtered by a 5 mm sieve to remove stone pieces, roots, etc.) that is equivalent to 16 kg of air-dried oil is laid on square thick plastic paper with an edge length of 2 m, then the required fertilizer and inhibitor (if necessary) that are uniformly mixed in advance are applied uniformly to the soil, the paper is folded for multiple times by a diagonal folding method, in this period, it is necessary to lay the soil on the paper and then fold the paper, finally the soil is sufficiently and uniformly mixed with the fertilizer and inhibitor, the obtained mixture is transferred into a plastic pot (with a diameter of 28 cm and a height of 34 cm), and finally irrigation is carried out to make the water content of the soil reach 60% of the maximal field water holding capacity. Finally, a height about 5 cm is reserved between the soil surface and the top end of the pot. Three corn seeds are sowed in each pot in a sowing depth of 5 cm, and after the emergence (about 15 days), thinning is carried out to make each pot have one corn. Finally, all potted corns are carried onto a four-wheeled platform lorry and finally transferred into a net house. When in rainy days, the potted corns are transferred into a shed. The corns are watered manually every day in a growth period so as to maintain the soil moisture. The planting density is about 4000 corns per Mu, and a dry weight and yield of the corn are determined in autumn.

[1] = target: T1, Canavalia ensiformis urease (Canavalia ensiformis, UniProt P07374); type: biochemical; conditions: incubated 20 min at 37° C., HEPES pH 7.5; unit inferred; read-out: median inhibitory concentration (IC50) for inhibiting the activity of Canavalia ensiformis urease
T1 construct: purchased Aladdin Company
Description: Acetohydroxamic acid is weighed, and mixed with 20 mM of HEPES buffer solution (with pH of 7.5) to prepare an acetohydroxamic acid solution of 0.1 μM, 0.5 μM, 1 μM, 3 μM, 5 μM, 10 μM, 20 μM, 40 μM, 60 μM and 80 μM, and the solution is cold stored in a brown bottle in a refrigerator at 4° C. for standby use;
Canavalia ensiformis urease is weighed, and dissolved in 20 mM of HEPES buffer solution (with pH of 7.5) to prepare the Canavalia ensiformis urease solution with a concentration of 10 U/mL, and the prepared solution is cold stored in the refrigerator at 4° C. for standby use. […]
A. 50 μL of the above prepared farnesene solution with different concentrations is collected, added with 100 μL of Canavalia ensiformis urease solution respectively, and uniformly mixed to obtain mixed solutions, and the mixed solutions are incubated for 20 min at 37° C.; 100 μL of urea solution is added for light avoidance reaction for 20 min at a room temperature; the Berthelot developing solution A is added and uniformly mixed, and the Berthelot developing solution B is added for development for 10 min to obtain an incubation solution; and 250 μL of incubation solution is absorbed onto a 96-well plate, an OD absolute value at 595 nm is determined by a microplate reader, and three times of test are carried in parallel for each concentration. […]

[2] = test system: soil urease-generating bacteria; assay: Inhibition of soil urease-generating bacteria (bacterial ureC gene copy number by quantitative PCR); conditions: urea 200 mg N kg^-1 dry soil, farnesene 0.5%, 2% of pure nitrogen
Description: (§1) (1) Pre-culture of soil: air-dried soil (brown soil) is filtered by a 2 mm sieve and then placed in a culture dish, distilled water accounting for 15% of the weight of the dried soil is added, after the dried soil is uniformly and thoroughly immersed with water, the soil is pre-cultured for 2 weeks in a constant temperature incubator at 25° C. to restore the biological activity of the soil, and ventilation and constant moisture are kept in the pre-culture period, thereby obtaining the pre-cultured soil.
(2) The pre-cultured soil is weighed; urea is added according to a concentration of 200 mg N kg^−1 of dry soil; the farnesene is added according to concentrations of pure nitrogen of 0 (U), 0.5% (U+0.5%), 1% (U+1%) and 2% (U+2%); and at the same time, the pre-cultured soil without urea and farnescene is used as control treatment, and 5 treatments are carried out and repeated for 4 times. In each treatment, the required urea and farnesene are dissolved in a certain amount of deionized water according to a required amount, then the solution is uniformly mixed with the pre-cultured soil that is equivalent to 50 g of air-dried soil by a vacuum method, the water content of the soil is enabled to reach 60% of the field water holding capacity (WHC), and finally the solution is placed in a 150 mL centrifugal pipe with a cover. […]

soil urease = assay: Inhibition of soil urease activity in incubated brown soil; type: biochemical
Description: as §1, with “incubator at a constant temperature of 25° C.” for “incubator at 25° C.”, “the pre-culture period.” for “the pre-culture period, thereby obtaining the pre-cultured soil.”
(2) The pre-cultured soil is weighed, and added with DMSO solutions of farnesene and acetohydroxamic acid respectively, the concentrations of the farnesene and acetohydroxamic acid are 50 mg/kg (calculated by the dried soil) respectively, and a farnesene-soil mixture and an acetohydroxamic acid-soil mixture are obtained. 5 g of farnesece-soil mixture and 5 g of acetohydroxamic acid-soil mixture are weighed respectively and placed into glass test tubes (length 15 cm×diameter 15 mm), then 5 mL of distilled water is added respectively into the test tubes to make the soil located below a liquid surface, the mixtures in the test tubes are shaken by a vortex shaker and uniformly mixed; and at the same time, the pre-cultured soil without the inhibitor is used as control treatment (CK) and cultured in the constant temperature incubator at a constant temperature of 25° C., and sampling is carried out respectively on the 1st day, the 7th day, 14th day and 28th day after the culture (water is supplemented every day according to a weight method so as to keep a total weight of the test tube constant) for determination of urease activity. […]

[3] = farnesene 0.5% of pure nitrogen content in the fertilizer
[4] = farnesene 0.5% of pure nitrogen content
[5] = farnesene 1% of pure nitrogen content in the fertilizer
[6] = farnesene 1% of pure nitrogen content
[7] = farnesene 5% of pure nitrogen content in the fertilizer
[8] = farnesene 5% of pure nitrogen content

T1 sequence (P07374 whole entry, looked up): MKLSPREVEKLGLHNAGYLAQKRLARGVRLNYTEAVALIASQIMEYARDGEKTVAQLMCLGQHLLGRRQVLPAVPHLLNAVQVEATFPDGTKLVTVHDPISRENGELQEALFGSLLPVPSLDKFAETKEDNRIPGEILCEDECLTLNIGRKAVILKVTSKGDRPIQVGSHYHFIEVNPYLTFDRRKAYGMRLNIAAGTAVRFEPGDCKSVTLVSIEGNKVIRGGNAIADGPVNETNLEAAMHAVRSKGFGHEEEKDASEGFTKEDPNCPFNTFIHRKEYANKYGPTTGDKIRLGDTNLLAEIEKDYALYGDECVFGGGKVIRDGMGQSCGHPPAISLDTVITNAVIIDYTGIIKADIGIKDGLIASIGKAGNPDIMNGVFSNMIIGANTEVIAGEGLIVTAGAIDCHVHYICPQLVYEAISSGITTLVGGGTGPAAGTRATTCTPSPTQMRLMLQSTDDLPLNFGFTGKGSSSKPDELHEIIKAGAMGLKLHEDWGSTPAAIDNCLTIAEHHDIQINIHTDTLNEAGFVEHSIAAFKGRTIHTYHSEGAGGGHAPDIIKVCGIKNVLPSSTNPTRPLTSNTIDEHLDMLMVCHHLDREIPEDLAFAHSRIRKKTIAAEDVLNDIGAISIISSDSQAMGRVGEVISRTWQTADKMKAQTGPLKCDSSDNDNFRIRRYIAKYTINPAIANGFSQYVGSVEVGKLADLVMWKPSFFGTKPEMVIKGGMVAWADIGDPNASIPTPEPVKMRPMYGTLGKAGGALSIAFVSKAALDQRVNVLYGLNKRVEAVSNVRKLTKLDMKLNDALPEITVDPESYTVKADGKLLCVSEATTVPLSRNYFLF

For farnesene, the Dry weight (corns; [3]) was 16006.3 kg ha^−1, the Yield (corns; [3]) was 8004.2 kg ha^−1 and the “Increase of dry weight” value (corns; [4]) was 4.1%. For the same substance, the Yield increase (corns; [4]) was 4.5%, the Dry weight (corns; [5]) was 16922.8 kg ha^−1 and the Yield (corns; [5]) was 8521.3 kg ha^−1. For the same substance, the “Increase of dry weight” value (corns; [6]) was 8.6%, the Yield increase (corns; [6]) was 10.1% and the Dry weight (corns; [7]) was 17371.5 kg ha^−1. The Yield (corns; [7]) was 8714.3 kg ha^−1, the “Increase of dry weight” value (corns; [8]) was 10.2% and the Yield increase (corns; [8]) was 12.2%. The IC50 [1] was 10.3 ± 0.25 µM, the “duration of the inhibition effect on urease-generating bacteria” value [2] was 14 days and the “inhibition of the proliferation of urease-generating bacteria (copy number of bacterial ureC genes)” value ([2]; 25° C.) was “can effectively inhibit the proliferation of the urease-generating bacteria”. For the same substance, the “duration of the inhibition effect on soil urease” value (soil urease; 50 mg/kg dried soil, brown soil, 25° C.) was 14 days, the “inhibition of the activity of soil urease” value (soil urease; 50 mg/kg dried soil, brown soil, 25° C., sampled day 1, 7, 14, 28) was “can effectively inhibit the activity of soil urease” and the “inhibition effect on soil urease compared with acetohydroxamic acid” value (soil urease; both at 50 mg/kg dried soil) was “equivalent to that of the commercial inhibitor acetohydroxamic acid”.
